Patent US11691992B2 (Anacor Pharmaceuticals, Inc., priority 2017, dated 2023)

What was measured:
Assay type in all cases: cell-based
[1] = test system: bloodstream-form trypanosome T. brucei brucei 427 strain; test: Trypanosoma brucei brucei high-throughput screening assay (resazurin); details: 72 h, read-out: IC50: I Org. Growth T. brucei brucei SBRI 427, 3 d [uM]
Protocol: Example 105. Trypanosoma brucei brucei High-Throughput Screening Assay Procedure
All experiments were conducted with the bloodstream-form trypanosome T. brucei brucei 427 strain obtained from Seattle Biomedical Research Institute (Seattle, Wash.). Parasites were cultured in T-25 vented cap flasks and kept in humidified incubators at 37° C. and 5% CO2. The parasite culture media was complete HMI-9 medium containing 10% FBS, 10% Serum Plus medium and penicillin/streptomycin. To ensure log growth phase, trypanosomes were sub-cultured at appropriate dilutions every 2-3 days. Approximately 50 microliters of log phase cultures were diluted 1:10 in HMI-9 and 10 μL of the diluted culture was removed and counted using a hemocytometer to determine parasite concentration. Parasites were diluted by addition of an appropriate volume of HMI-9 to achieve a final parasite concentration of 2×10^5/mL. Compounds of the invention to be tested were serially diluted in DMSO and 0.5 μL added to 49.5 μL HMI-9 in triplicate 96-well plates using a Biomek NX liquid handler. Parasites from the diluted stock were added to each well (50 μL) using a Multidrop 384 dispenser to give a final concentration of 1.0×10^5/ml parasites in […] for DMSO. Trypanosomes were incubated with compounds for 72 hrs at 37° C. with 5% CO2. Resazurin (20 μL of 12.5 mg/ml stock) from Sigma-Aldrich was added to each well and plates were incubated for an additional 2-4 hrs. Assay plates were read using an EnVision plate reader at an excitation wavelength of 544 nm and emission of 590 nm. Triplicate data points were averaged to generate sigmoidal dose response curve and determine IC50 values using XLfit curve fitting software from IDBS (Guildford, UK).

[2] = test system: luciferase-expressing L. major parasites developing intracellularly inside RAW 264.7 macrophages; test: Leishmania major intracellular amastigote assay in RAW 264.7 macrophages (luciferase); details: RAW264.7, 96 hours, read-out: IC50: I Org. intracellular amastigote Growth L. major, 4 d
Summary of the method: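 RAW 264.7 macrophages infected overnight with luciferase-expressing L. major promastigotes, washed of extracellular parasites, then exposed to two-fold compound dilutions (final 0.5-10,000 ng/ml) for 96 h at 37° C, 5% CO2. Luciferin luminescence after 30 min; IC50 by sigmoidal variable-slope regression.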

[3] = test system: T. cruzi Tulahuen strain C2C4 containing the β-galactosidase (Lac Z) gene in rat skeletal myoblasts (L-6 cells); test: Trypanosoma cruzi C2C4 screening assay; details: L6, 96 h, read-out: SCYNEXIS IC50: I Org. Growth T. cruzi Tulahuen C2C4 Lac Z, 4 d [uM]
Protocol: Example 113: Trypanosoma cruzi C2C4 Screening Assay Procedure
Rat skeletal myoblasts (L-6 cells) were seeded in 96-well microtiter plates at 2×10^3 cells/well in 100 μL RPMI 1640 medium with 10% FBS and 2 mM L-glutamine. After 24 h the medium was removed and replaced by 100 μL per well containing 5×10^3 trypomastigote forms of T. cruzi Tulahuen strain C2C4 containing the β-galactosidase (Lac Z) gene (Buckner, et al., Antimicrobial Agents and Chemotherapy, 40: 2592-2597 (1996)). After 48 h the medium was removed from the wells and replaced by 100 μL fresh medium with or without a serial drug dilution of the seven 3-fold dilution steps covering a range from 90 to 0.123 μg/mL. After 96 h of incubation the plates were inspected under an inverted microscope to assure growth of the controls and sterility. The substrate (50 μL) chlorophenol red-β-D-galactopyranoside (CPRG, Roche Diagnostics, Ltd) in 0.25% Nonidet P-40/PBS was added to all wells and a color reaction developed within 2-6 h which was read photometrically at 540 nm. Data were transferred into the graphic program Softmax Pro (Molecular Devices), which calculated IC50 values.

[4] = test system: TdTomato-modified T. cruzi (CL strain) in Vero cells; test: In vitro IC50 measurement of T. cruzi amastigote killing using TdTomato-modified T. cruzi (CL strain); details: Trypanosoma cruzi, 72 h, fluorescence, read-out: IC50: I Org. amastigote Growth T. cruzi CL TdTomato, 3 d
Summary of the method: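 Vero cells were infected with tdTomato-expressing CL-strain parasites and dosed at 5 uM–5 nM. Fluorescence (ex 544/em 612 nm) was read at day 0 and again after 72 h at 37 °C, with day 0 values subtracted. IC50 and IC90 came from nonlinear regression.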

SMILES | IC50 [1] | IC50 [2] | IC50 [3] | IC50 [4]
O=C(Nc1ccc2c(c1)B(O)OC2)c1cn(-c2ccccc2)nn1 [Example 66, N-(1-hydroxy-1,3-dihydrobenzo[c][1,2]oxaborol-6-yl)-1-phenyl-1H-1,2,3-triazole-4-carboxamide] | 0.075 to 0.15 µM | ≤ 1000 nM | 0.06 to 0.1 µM | < 600 nM
Cc1c(C(=O)Nc2ccc3c(c2)B(O)OC3)nnn1-c1ccc(F)cc1 [Example 86, 1-(4-fluorophenyl)-N-(1-hydroxy-1,3-dihydrobenzo[c][1,2]oxaborol-6-yl)-5-methyl-1H-1,2,3-triazole-4-carboxamide] | 0.075 to 0.15 µM | – | 0.11 to 1 µM | 600 to 1000 nM
